Target: T1, human mPGES-1 (Homo sapiens, UniProt O14684)
T1 sequence (O14684 1-152): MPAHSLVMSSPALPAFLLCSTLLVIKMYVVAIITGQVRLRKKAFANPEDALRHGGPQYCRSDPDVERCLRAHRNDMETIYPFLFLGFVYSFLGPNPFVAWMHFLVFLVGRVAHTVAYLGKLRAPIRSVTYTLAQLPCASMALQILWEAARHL
Assay: in vitro inhibition of human mPGES-1
Assay type: biochemical
Details: Table 2

| SMILES | activity against human mPGES-1 in words |
| --- | --- |
| CCCCCCOc1ccc(-c2nn(-c3ccc(Cl)cc3)cc2/C=C(\C#N)C(N)=O)cc1 [14c] | not very active |
| CCCCCCOc1ccc(-c2nn(-c3ccc(Cl)cc3)cc2C=C(C#N)C#N)cc1 [14b] | not very active |
| CCOc1ccc(-c2nn(-c3ccc(Cl)cc3)cc2/C=C(\C#N)C(=O)O)cc1 [13a] | submicromolar potency |
| CCCCCCOc1ccc(-c2nn(-c3ccc(Cl)cc3)cc2/C=C(\C#N)C(=O)O)cc1 [14a] | submicromolar potency |
| CCOc1ccc(-c2nn(-c3ccc(Cl)cc3)cc2/C=C(\C#N)C(N)=O)cc1 [13c] | not very active |
| CCOc1ccc(-c2nn(-c3ccc(Cl)cc3)cc2C=C(C#N)C#N)cc1 [13b] | not very active |

Tested on: COX-1/2 (mixed COX-1 and COX-2)
Assay: inhibition of mixed COX-1 and COX-2
Assay type: biochemical
Details: summary

| SMILES | inhibition against COX-1/2 in words |
| --- | --- |
| CCCCCCOc1ccc(-c2nn(-c3ccc(Cl)cc3)cc2/C=C2/SC(=O)N(CC(=O)O)C2=O)cc1 [14f] | without significant inhibition |

Source: paper PMC5836806 (Bioorganic & medicinal chemistry letters, 2018)
